# In patent publication US7999147B2, “Reduction of odors in absorbent articles” (First Quality Products, Inc., priority 2004, dated 2011):
# Where “and” joins values, the source holds several entries; their conditions need not be identical. Equal entries are not always repeated.
# What was measured:
# [1] = test system: ammonia; assay: Ammonia concentration from urine in absorbent structures sprayed with additive solution (gas dosimeter tubes); parameters: species or system human; conditions: 37° C.
# [2] = test system: ammonia; assay: Ammonia concentration from urine in absorbent structures containing additive-treated SAP (gas dosimeter tubes); parameters: species or system human; conditions: 1.5 g SAP treated with FORESTALL (0.135 g per 13.5 g SAP) + 4.5 g fluff pulp, 37° C., donors X, Y
# Method: The following is a detailed description of the test method to measure ammonia concentrations. A series of absorbent structures are prepared according to the following. The base absorbent structure is fluff pulp or a combination of fluff and SAP. Then, for example, an aqueous solution is prepared containing a known quantity of a potential treatment for ammonia malodor. An equal quantity of the solution is sprayed onto all but one of the series of absorbent structures. The spraying is applied as uniformly as possible. One absorbent structure is sprayed with an equal volume of water and is the control. All absorbent structures are left out several hours to dry. Each of the absorbent structures is then transferred to Nalgene® Brand 125-ml, narrow-mouth polycarbonate Erlenmeyer flasks. […]
# Straughan® Gastec® ammonia gas dosimeter tubes, grade 3D, are broken off and thereby opened at one end. […] Donors collect a suitable quantity of fresh urine specimen in disposable collection cups marked with volume indications. […]
# The flasks are then placed into a water bath set at 37° C. […] Based on discrete markings on the detector tube, the time-weighted average concentration of ammonia measured in parts per million-hour are read from the scale and recorded. […] Readings of ammonia concentrations are read up to 72 hours time or less if any of the concentrations exceed the maximum limit of the detection tube's range. […]
# [3] = Water solubility of the additive; format: physicochemical
# Method: Four absorbent structures are made according to Example 4 except onto three structures, 4.5 ml of an aqueous solution containing 1% M-Quat Dimer 18 is sprayed. To dissolve the additive in water, the temperature needed to be raised to about 45-60° C. M-Quat Dimer 18 is the tradename for 2-hydroxypropylene-bis-1,3-(dimethylstearylammonium chloride). […] This chemical is manufactured by BASF Corporation.
# [4] = 4.5 ml of 1% M-Quat Dimer 18 sprayed on fluff pulp + SAP, urine, donors X, Y
compound,measurement,setting,value
"1-propanaminium, 3-amino-N-ethyl-N,N-dimethyl-N-soya acyl derivative, ethyl sulfate",Ammonia Concentration ppm-hour 56 hour reading,"[1]; 4.5 ml of 1% 1-propanaminium soya acyl derivative ethyl sulfate sprayed on fluff pulp + SAP, urine, donor Y, 56 hour",25 ppm-hour
same,Ammonia Concentration ppm-hour 72 hour reading,"[1]; 4.5 ml of 1% 1-propanaminium soya acyl derivative ethyl sulfate sprayed on fluff pulp + SAP, urine, donor Z",0 ppm-hour
same,Ammonia Concentration ppm-hour 8 hour reading,"[1]; 4.5 ml of 1% 1-propanaminium soya acyl derivative ethyl sulfate sprayed on fluff pulp + SAP, urine, donors Y, Z",0 ppm-hour
same,Ammonia Concentration ppm-hour 24 hour reading,"[1]; 4.5 ml of 1% 1-propanaminium soya acyl derivative ethyl sulfate sprayed on fluff pulp + SAP, urine, donors Y, Z, 24 hour",0 ppm-hour
4-ethyl-4-soya morpholinium ethyl sulfate [FORESTALL],Ammonia Concentration ppm-hour 8 hour reading,"[1]; 4.5 ml of 1% FORESTALL sprayed on 4.5 g fluff pulp + 1.5 g SAP, fresh urine, donors X, Y, Z",0 ppm-hour
same,Ammonia Concentration ppm-hour 32 hour reading,[2],25 ppm-hour and 30 ppm-hour
"CCCCCCCCCCCCCCCCCC[N+](C)(C)CC(O)C[N+](C)(C)CCCCCCCCCCCCCCCCCC.[Cl-].[Cl-] [M-Quat Dimer 18, 2-hydroxypropylene-bis-1,3-(dimethylstearylammonium chloride)]",Ammonia Concentration ppm-hour 8 hour reading,[1]; [4],0 ppm-hour
same,Ammonia Concentration ppm-hour 32 hour reading,"[1]; 4.5 ml of 1% M-Quat Dimer 18 sprayed on fluff pulp + SAP, urine, donors X, Y, 32 hour",12 ppm-hour and 20 ppm-hour and 23 ppm-hour
same,Ammonia Concentration ppm-hour 48 hour reading,"[1]; 4.5 ml of 1% M-Quat Dimer 18 sprayed on fluff pulp + SAP, urine, donors X, Y, 48 hour",25 ppm-hour and 30 ppm-hour and 50 ppm-hour
same,Ammonia Concentration ppm-hour 72 hour reading,[1]; [4],250 ppm-hour and 470 ppm-hour and 280 ppm-hour and 400 ppm-hour and 425 ppm-hour
same,Temperature needed to dissolve the additive in water,[3]; 1% aqueous solution,45-60 °C
same,Water solubility at 37° C.,[3]; 37° C.,not water soluble at 37 °C
ethylbis(hydroxyethyl)tallowalkyl ammonium ethyl sulfate,Ammonia Concentration ppm-hour 8 hour reading,"[1]; 4.5 ml of 1% ethylbis(hydroxyethyl)tallowalkyl ammonium ethyl sulfate sprayed on fluff pulp + SAP, urine, donors Z, X",0 ppm-hour
hydrogenated tallowalkyl(2-ethylhexyl)dimethylammonium methyl sulfate [ARQUAD HTL8-MS],Ammonia Concentration ppm-hour 8 hour reading,"[1]; 4.5 ml of 1% ARQUAD HTL8-MS sprayed on fluff pulp + SAP, urine, donors X, Y",0 ppm-hour
